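96-well plates; 48 h exposure; 5 concentrations. Endpoints by linear interpolation between flanking doses. Not reached: highest tested concentration assigned. GI50: concentration for 50% inhibition of growth.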 The source made the active and inactive calls. Cut-off read from the data, not from the text of the source: active = GI50 up to about 1.1 µM and inactive = higher.
Tests used:
Assay in all cases: DTP human tumour cell line panel, 48 h
[1] = test system: HOP-92
[2] = test system: 786-0
[3] = test system: UACC-62
[4] = test system: M19-MEL
[5] = test system: IGROV-1
[6] = test system: A498
[7] = test system: HCC 2998
[8] = test system: NCI-H460
[9] = test system: SK-OV-3
[10] = test system: COLO 205
[11] = test system: SF-539
[12] = test system: KM-20L2
[13] = test system: SK-MEL-28
[14] = test system: HT-29
[15] = test system: CAKI-1
[16] = test system: SK-MEL-2
[17] = test system: SR

Measured: GI50

CC(=O)n1c(=O)c2cc3c(=O)n(-c4cccc(C#N)c4)c(=O)c3cc2c1=O
inactive: [1] 39.2 µM | [2] 90.4 µM | [3] > 100 µM | [4] > 100 µM | [5] > 100 µM | [6] > 100 µM | [7] > 100 µM | [8] > 100 µM | [9] > 100 µM | [10] > 100 µM | [11] > 100 µM | [12] > 100 µM | [13] > 100 µM | [14] > 100 µM | [15] > 100 µM | [16] > 100 µM

COC(=O)C(/C(=N/NC(N)=O)C(=O)Nc1c(C)cccc1C(C)(C)C)c1nc2ccc(Cl)cc2nc1O (stereo not drawn)
inactive: [1] > 100 µM | [2] > 100 µM | [3] > 100 µM | [17] 37.5 µM | [4] > 100 µM | [5] > 100 µM | [6] > 100 µM | [7] > 100 µM | [8] > 100 µM | [9] > 100 µM | [11] > 100 µM | [12] > 100 µM | [13] > 100 µM | [14] > 100 µM | [15] > 100 µM | [16] > 100 µM

C(=C\C(Sc1ccccc1)c1ccccc1)/NNC1=NN=C(c2ccccc2)C(c2ccccc2)N1 (stereo not drawn)
inactive: [1] 16.3 µM | [2] 65.2 µM | [3] 21.5 µM | [17] 25.9 µM | [4] 27.7 µM | [5] 68.5 µM | [7] 27.7 µM | [8] 30.3 µM | [9] > 100 µM | [10] 32.2 µM | [11] 65.3 µM | [12] 24.8 µM | [13] > 100 µM | [14] 12 µM | [15] 24.8 µM | [16] 74 µM

CS(=O)(=O)C1(Br)S(=O)(=O)OCCOS1(=O)=O
inactive: [1] > 100 µM | [2] > 100 µM | [3] > 100 µM | [17] > 100 µM | [4] > 100 µM | [5] > 100 µM | [6] > 100 µM | [7] > 100 µM | [8] > 100 µM | [9] > 100 µM | [10] > 100 µM | [11] > 100 µM | [12] > 100 µM | [13] > 100 µM | [14] > 100 µM | [16] > 100 µM

CCCCc1c2c(nc3c1CCC/C3=C\c1ccccc1)C(=O)CCC2
inactive: [1] 22 µM | [2] 25.2 µM | [3] 22.6 µM | [17] 7.24 µM | [4] 18.2 µM | [5] 18.6 µM | [6] 19.4 µM | [7] 20.3 µM | [8] 34.2 µM | [9] 24.8 µM | [10] 22.8 µM | [11] 18.4 µM | [12] 22.6 µM | [13] 19.8 µM | [14] 15.5 µM | [16] 17.1 µM

OCCNCO
inactive: [1] > 100 µM | [2] > 100 µM | [3] > 100 µM | [17] > 100 µM | [4] > 100 µM | [5] > 100 µM | [6] > 100 µM | [8] > 100 µM | [9] > 100 µM | [10] > 100 µM | [11] > 100 µM | [12] > 100 µM | [13] > 100 µM | [14] > 100 µM | [15] > 100 µM | [16] > 100 µM

CC1OC(OCC2COC(O)(Oc3c(-c4ccc(O)c(O)c4)oc4cc(O)cc(O)c4c3=O)C(O)C2O)C(O)C(O)C1O (stereo not drawn)
inactive: [1] > 100 µM | [2] > 100 µM | [3] > 100 µM | [17] > 100 µM | [4] > 100 µM | [5] > 100 µM | [6] > 100 µM | [7] > 100 µM | [8] > 100 µM | [9] > 100 µM | [10] > 100 µM | [11] > 100 µM | [12] > 100 µM | [13] > 100 µM | [14] > 100 µM | [15] > 100 µM

CCN(/N=C1\CC2C=CCN(C2)C(=O)Cc2c1[nH]c1ccccc21)S(=O)(=O)c1ccc(C)cc1 (stereo not drawn)
inactive: [2] > 100 µM | [3] 38.8 µM | [17] 64.4 µM | [4] 76.7 µM | [5] 68.4 µM | [7] > 100 µM | [10] 68.2 µM | [11] > 100 µM | [12] 64.1 µM | [15] 25.4 µM | [16] 88.1 µM

COc1cc(-c2nn3c(=O)n(-c4ccc(Cl)cc4)c(=O)nc3s2)cc(OC)c1OC
inactive: [1] 15.5 µM | [2] 12.3 µM | [3] > 50 µM | [4] > 100 µM | [5] > 89.1 µM | [6] > 67 µM | [7] > 100 µM | [8] > 100 µM | [9] > 50 µM | [10] > 100 µM | [11] 17 µM | [12] > 100 µM | [13] > 93.1 µM | [14] > 100 µM | [15] 18.2 µM | [16] 24.9 µM

COc1ccc(C2ON(c3ccccn3)CC=C2C)cc1 (stereo not drawn)
inactive: [2] > 100 µM | [3] > 100 µM | [17] 58.9 µM | [4] > 100 µM | [5] > 100 µM | [7] > 100 µM | [8] > 100 µM | [9] > 100 µM | [10] > 100 µM | [11] > 100 µM | [12] > 100 µM | [13] > 100 µM | [14] > 100 µM | [15] > 100 µM | [16] > 100 µM

COc1ccc(-c2oc(/C=N/c3ccccc3)c([N+](=O)[O-])c2-c2ccc(OC)c(OC)c2)cc1OC
inactive: [1] 65.6 µM | [2] > 100 µM | [3] > 100 µM | [17] > 100 µM | [4] > 100 µM | [5] > 100 µM | [7] > 100 µM | [8] > 100 µM | [9] > 100 µM | [10] > 100 µM | [11] > 100 µM | [12] > 100 µM | [13] > 100 µM | [14] > 100 µM | [15] > 100 µM

N#CC(C(=O)C(=O)Nc1ccccc1)c1ccccc1 (stereo not drawn)
inactive: [1] > 100 µM | [2] > 100 µM | [3] > 100 µM | [17] > 100 µM | [4] > 100 µM | [5] > 100 µM | [9] > 100 µM | [11] > 100 µM | [12] > 100 µM | [13] > 100 µM | [14] > 100 µM | [15] > 100 µM | [16] > 100 µM

Cc1cc(Br)ccc1/N=N/C1C(=O)ON=C1c1ccccc1 (stereo not drawn)
inactive: [1] > 100 µM | [2] > 100 µM | [3] > 100 µM | [17] 48 µM | [4] 67.6 µM | [5] > 100 µM | [6] 35 µM | [7] 26.5 µM | [8] 55 µM | [9] > 100 µM | [10] 16 µM | [11] > 100 µM | [12] 55.2 µM | [13] > 100 µM | [14] 47.1 µM | [16] > 100 µM
